Data set [1] addresses T1, Dipeptidyl peptidase 4 (Homo sapiens, UniProt P27487). Nature of the data set: Inhibition of DPP4 in human plasma using GP-BAN as fluorescent substrate preincubated for 5 mins followed by substrate addition and measured for 20 mins by microplate reader analysis. In kind it is cell-free.
Target sequence in this assay (P27487 whole entry): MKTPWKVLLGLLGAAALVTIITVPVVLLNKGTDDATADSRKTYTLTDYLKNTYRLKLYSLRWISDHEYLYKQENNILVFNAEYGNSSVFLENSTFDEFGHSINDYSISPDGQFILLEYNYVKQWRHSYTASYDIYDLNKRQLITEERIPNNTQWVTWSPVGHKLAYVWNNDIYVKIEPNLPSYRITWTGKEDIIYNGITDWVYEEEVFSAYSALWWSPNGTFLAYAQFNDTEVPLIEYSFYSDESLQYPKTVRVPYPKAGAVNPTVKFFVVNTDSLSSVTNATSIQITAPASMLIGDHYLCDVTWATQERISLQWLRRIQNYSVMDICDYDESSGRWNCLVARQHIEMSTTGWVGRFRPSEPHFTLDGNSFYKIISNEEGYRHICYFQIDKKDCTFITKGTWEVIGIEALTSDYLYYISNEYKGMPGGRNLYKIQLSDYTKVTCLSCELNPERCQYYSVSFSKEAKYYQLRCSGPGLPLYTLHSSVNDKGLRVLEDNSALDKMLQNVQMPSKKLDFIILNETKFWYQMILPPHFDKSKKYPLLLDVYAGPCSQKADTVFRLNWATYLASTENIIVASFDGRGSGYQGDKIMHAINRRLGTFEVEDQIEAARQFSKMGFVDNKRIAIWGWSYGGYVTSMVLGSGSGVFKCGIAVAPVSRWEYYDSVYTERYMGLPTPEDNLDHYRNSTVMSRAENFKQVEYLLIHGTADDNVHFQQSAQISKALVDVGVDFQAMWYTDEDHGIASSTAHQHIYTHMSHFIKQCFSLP
Data set [2] relates to RAW264.7. Nature of the data set: Anti-inflammatory activity in mouse RAW264.7 cells assessed as downregulation of LPS-stimulated IL-6 mRNA expression at 20 to 100 uM preincubated for 4 hrs followed by LPS-stimulation for 24 hrs by qPCR analysis. The conditions noted are these: dose 20-100 µM, time 28.0 hrs. It counts as functional, cell-based. On the technique in general: Real-time PCR tracks product formation cycle by cycle.

The target in data set [3] is T1, Dipeptidyl peptidase 4. Nature of the data set: Inhibition of DPP4 in human Caco-2 cells using GP-BAN as substrate assessed reduction of reduction in substrate hydrolysis at 20 uM incubated for 30 mins by Hoechst 33342 staining based assay. In kind it is cell-based.
Target sequence in this assay (P27487 whole entry, looked up): as the sequence (P27487 whole entry) above
Data set [4] has as its system RAW264.7. Put plainly: Cytotoxicity against mouse RAW264.7 cells assessed as cell growth inhibition incubated for 48 hrs by CCK-8 assay. It counts as toxicity, cell-based. The following applies: raw264.7, 48 h. On the technique in general: Tetrazolium dyes change colour on reduction, which living cells bring about.
For data set [5], the system named is RPTEC. Nature of the data set: Cytotoxicity against human RPTEC cells assessed as cell growth inhibition incubated for 48 hrs by CCK-8 assay. In kind it is toxicity, cell-based.
The subject of data set [6] is RAW264.7. Nature of the data set: Anti-inflammatory activity in mouse RAW264.7 cells assessed as downregulation of LPS-stimulated TNF-alpha mRNA expression at 20 to 100 uM preincubated for 4 hrs followed by LPS-stimulation for 24 hrs by qPCR analysis. In kind it is functional, cell-based. The following applies: dose 20-100 µM, time 28.0 hrs.
A short description of data set [7]: Metabolic stability in human liver microsomes assessed as UDPGA-dependent drug metabolism by measuring half life at 10 uM preincubated for 3 mins followed by UDPGA addition measured for 90 mins by LC-UV analysis. In kind it is ADME, Microsome. The conditions noted are these: time 93 min. On the technique in general: Liver microsomes are a subcellular fraction often used to study metabolism.

For data set [8], the system named is RAW264.7. Put plainly: Anti-inflammatory activity in mouse RAW264.7 cells assessed as downregulation of LPS-stimulated IL-1beta mRNA expression at 20 to 100 uM preincubated for 4 hrs followed by LPS-stimulation for 24 hrs by qPCR analysis. In kind it is functional, cell-based. The following applies: dose 20-100 µM, time 28.0 hrs.
Data set [9] addresses T1, Dipeptidyl peptidase 4. Put plainly: Mixed type inhibition of DPP4 (unknown origin) using varying concentrations of GP-BAN as substrate assessed as inhibition constant.
Target sequence in this assay (P27487 whole entry): as above
Data set [10] addresses T1, Dipeptidyl peptidase 4. Nature of the data set: Inhibition of DPP4 in human HepG2 cells using GP-BAN as substrate assessed reduction of reduction in substrate hydrolysis at 20 uM incubated for 30 mins by Hoechst 33342 staining based assay. In kind it is cell-based.
Target sequence in this assay (P27487 whole entry, looked up): as the sequence (P27487 whole entry) above
The target in data set [11] is T2, Prolyl endopeptidase FAP (Homo sapiens, UniProt Q12884).
T2 sequence (Q12884 whole entry): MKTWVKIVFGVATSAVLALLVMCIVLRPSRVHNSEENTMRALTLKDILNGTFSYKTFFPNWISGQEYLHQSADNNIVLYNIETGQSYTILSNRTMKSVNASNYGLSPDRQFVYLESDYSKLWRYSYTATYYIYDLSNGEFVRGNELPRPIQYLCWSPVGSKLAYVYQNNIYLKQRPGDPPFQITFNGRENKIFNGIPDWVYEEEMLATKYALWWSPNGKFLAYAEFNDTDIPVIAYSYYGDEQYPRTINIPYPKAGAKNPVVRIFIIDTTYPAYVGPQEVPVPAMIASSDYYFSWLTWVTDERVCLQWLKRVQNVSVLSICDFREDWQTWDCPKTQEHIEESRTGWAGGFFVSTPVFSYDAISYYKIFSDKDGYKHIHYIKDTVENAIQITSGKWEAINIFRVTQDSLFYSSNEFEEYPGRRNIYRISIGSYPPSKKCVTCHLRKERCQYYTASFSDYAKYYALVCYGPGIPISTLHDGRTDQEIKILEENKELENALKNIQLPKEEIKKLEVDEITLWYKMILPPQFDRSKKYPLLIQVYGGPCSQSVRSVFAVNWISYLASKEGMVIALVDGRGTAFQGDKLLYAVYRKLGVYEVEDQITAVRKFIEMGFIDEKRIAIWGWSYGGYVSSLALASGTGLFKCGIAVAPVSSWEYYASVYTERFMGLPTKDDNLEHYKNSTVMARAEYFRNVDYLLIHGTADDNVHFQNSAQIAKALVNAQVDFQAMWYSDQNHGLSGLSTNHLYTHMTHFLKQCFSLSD
Nature of the data set: Inhibition of recombinant human FAP using Z-GP-AMC as substrate preincubated for 5 mins followed by substrate addition and measured after 20 mins by microplate reader analysis.

Data set [12] is filed under the species Homo sapiens. Put plainly: Selectivity index, ratio of IC50 for inhibition of recombinant human PREP to IC50 for inhibition of recombinant human DPP4.
The target in data set [13] is Prothrombin (Homo sapiens, UniProt P00734). Nature of the data set: Inhibition of recombinant thrombin in human plasma using […] as substrate preincubated for 3 mins followed by substrate addition and measured for 30 mins by microplate reader analysis. In kind it is cell-free.
The target in data set [14] is Dipeptidyl peptidase 9 (Homo sapiens, UniProt Q86TI2). Put plainly: Inhibition of recombinant human DPP9 using Z-GP-AMC as substrate preincubated for 5 mins followed by substrate addition and measured after 20 mins by microplate reader analysis.
Dipeptidyl peptidase 9, sequence (Q86TI2 whole entry): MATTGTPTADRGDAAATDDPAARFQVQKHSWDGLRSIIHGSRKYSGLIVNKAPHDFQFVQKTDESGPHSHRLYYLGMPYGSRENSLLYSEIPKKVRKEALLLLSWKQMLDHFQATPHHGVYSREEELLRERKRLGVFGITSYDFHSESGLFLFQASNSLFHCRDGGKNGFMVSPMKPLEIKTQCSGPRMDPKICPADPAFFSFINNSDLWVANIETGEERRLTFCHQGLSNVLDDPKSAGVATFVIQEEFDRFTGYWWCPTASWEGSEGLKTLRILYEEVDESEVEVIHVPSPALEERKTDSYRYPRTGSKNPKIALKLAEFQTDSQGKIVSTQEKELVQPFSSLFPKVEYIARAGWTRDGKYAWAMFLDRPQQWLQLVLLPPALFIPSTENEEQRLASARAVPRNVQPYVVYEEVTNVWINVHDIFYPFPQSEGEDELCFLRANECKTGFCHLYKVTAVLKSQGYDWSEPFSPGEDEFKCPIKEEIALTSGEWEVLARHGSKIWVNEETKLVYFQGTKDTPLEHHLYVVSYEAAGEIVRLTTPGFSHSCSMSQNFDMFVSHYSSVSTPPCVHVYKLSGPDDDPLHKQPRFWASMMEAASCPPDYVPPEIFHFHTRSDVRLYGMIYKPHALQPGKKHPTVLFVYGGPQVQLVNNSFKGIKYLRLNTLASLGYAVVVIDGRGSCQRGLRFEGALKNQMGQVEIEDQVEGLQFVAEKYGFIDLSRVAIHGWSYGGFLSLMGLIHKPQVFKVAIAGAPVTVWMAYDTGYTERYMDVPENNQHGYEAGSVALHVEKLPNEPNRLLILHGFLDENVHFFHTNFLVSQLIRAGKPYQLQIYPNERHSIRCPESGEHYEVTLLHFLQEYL
The species entered for data set [15] is Homo sapiens. Nature of the data set: Selectivity index, ratio of IC50 for inhibition of recombinant human DPP9 to IC50 for inhibition of recombinant human DPP4.
Data set [16] addresses T3, Prolyl endopeptidase (Homo sapiens, UniProt P48147).
T3 sequence (P48147 whole entry): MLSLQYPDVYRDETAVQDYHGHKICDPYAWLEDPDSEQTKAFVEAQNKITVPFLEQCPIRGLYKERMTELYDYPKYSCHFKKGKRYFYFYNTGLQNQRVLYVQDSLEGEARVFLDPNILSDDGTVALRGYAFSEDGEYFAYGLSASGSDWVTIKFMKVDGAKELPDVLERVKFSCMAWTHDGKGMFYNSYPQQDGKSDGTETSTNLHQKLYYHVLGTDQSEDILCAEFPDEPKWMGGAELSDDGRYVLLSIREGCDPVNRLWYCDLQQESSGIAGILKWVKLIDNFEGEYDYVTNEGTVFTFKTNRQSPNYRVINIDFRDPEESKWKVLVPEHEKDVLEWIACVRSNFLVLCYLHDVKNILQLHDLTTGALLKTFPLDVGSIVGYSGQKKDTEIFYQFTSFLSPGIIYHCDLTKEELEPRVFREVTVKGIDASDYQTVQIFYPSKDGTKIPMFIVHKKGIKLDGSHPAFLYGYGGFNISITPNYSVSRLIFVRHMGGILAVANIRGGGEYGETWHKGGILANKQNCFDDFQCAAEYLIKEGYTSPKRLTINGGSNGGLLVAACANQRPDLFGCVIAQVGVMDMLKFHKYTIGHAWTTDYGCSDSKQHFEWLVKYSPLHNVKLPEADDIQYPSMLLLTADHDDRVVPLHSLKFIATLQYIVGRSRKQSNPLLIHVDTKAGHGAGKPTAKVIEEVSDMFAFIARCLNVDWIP
Put plainly: Inhibition of recombinant human PREP using Z-GP-AMC as substrate preincubated for 5 mins followed by substrate addition and measured after 20 mins by microplate reader analysis.

Data set [17] concerns the target T1, Dipeptidyl peptidase 4. Put plainly: Inhibition of recombinant human DPP4 using GP-BAN as substrate preincubated for 5 mins followed by substrate addition and measured after 20 mins by microplate reader analysis.
Target sequence in this assay (P27487 whole entry): as the sequence (P27487 whole entry) above
Data set [18] can be described thus: Metabolic stability in human liver microsomes assessed as […] drug metabolism by measuring half life at 10 uM preincubated for 3 mins followed by NADPH addition measured for 90 mins by LC-UV analysis. It counts as ADME, Microsome. The following applies: time 93 min.
A short description of data set [19]: Stability of the compound in artificial gastric fluid at 10 uM incubated for 90 mins by LC-UV analysis. It counts as ADME. The following applies: simulated gi fluid, 1.5 h.
Data set [20] in a line: Stability of the compound in artificial intestinal fluid at 10 uM incubated for 90 mins by LC-UV analysis. The conditions noted are these: simulated gi fluid, 1.5 h. In kind it is ADME.

pIC50, pKi: −log10 of the molar value. Activity calls are given as the source filed them. Bounds are passed on as bounds.

By pIC50 is commonly meant −log10 of the IC50, conventionally taken in molar units. In general, half-life refers to the time needed for the level to fall by half in the phase considered. As a reminder, the pKi is the negative decadic logarithm of the Ki, by convention in mol/L.

Compound `COc1ccc(C(=O)/C=C/c2cc(Cl)c(O)cc2OC)cc1` gave a pIC50 in data set [1] of 4.96.
As for `COc1cc(O)c(Cl)cc1/C=C/C(=O)c1ccc(C(F)(F)F)cc1`, the pIC50 in data set [1] is 4.90.
On to `COc1cc(O)c(Cl)cc1/C=C/C(=O)c1ccc(O)cc1`, for which the result in data set [2], in data set [6] and in data set [8] was Active. Further, the inhibition result in data set [3] and in data set [10] was “Active” each time. In addition, the pIC50 in [1] was 5.15. The Activity entry in [4] and in data set [5] was “Non-Toxic” each time. Further, the half-life at 10 µM in data set [7] turned out to be 7.1 min. Moreover, the pKi in data set [9] is 5.18.
Turning to `COc1cc(O)c(Br)cc1/C=C/C(=O)c1ccc(O)cc1`, in [1], the pIC50 was 4.79.
`CCOc1ccc(C(=O)/C=C/c2cc(Cl)c(OC)cc2OC)cc1` had a pIC50 in [1] of less than 4.00.
Still for that read-out and setting: the result for `COc1cc(OC)c(/C=C/C(=O)c2ccc(O)cc2)cc1Cl` reads 4.31.
In data set [1], `COc1cc(C(=O)/C=C/c2cc(Cl)c(O)cc2OC)ccc1O` gave a pIC50 of 4.50.
With `O=c1ccc2ccc(O)cc2o1` [UMBELLIFERONE], the half-life at 10 µM in data set [7] amounted to 17.1 min.
The compound `CCCOc1ccc(C(=O)/C=C/c2cc(Br)c(O)cc2OC)cc1` showed a pIC50 in data set [1] of 4.58.
As to `COc1cc(O)c(Cl)cc1/C=C/C(=O)c1ccc(Br)cc1`, the pIC50 in [1] is 5.01. In data set [9], the pKi was 5.50.
Turning to `C=CC(C)(C)c1cc(/C=C/C(=O)c2ccc(O)cc2)c(OC)cc1O` [LICOAGROCHACONE A], the pIC50 in data set [1] is 4.52.
Turning to `COc1cc(O)c(Cl)cc1/C=C/C(=O)c1cccc(O)c1`, the pIC50 in data set [1] is 5.19. Moreover, the pKi in data set [9] is 4.76.
`CCCOc1ccc(C(=O)/C=C/c2cc(Cl)c(OC)cc2OC)cc1` gave a pIC50 in data set [1] of less than 4.00.
Take `COc1cc(O)c(Cl)cc1/C=C/C(=O)c1ccc(O)c([N+](=O)[O-])c1`: the outcome in data set [2], in [6] and in [8] was Active. Moreover, the pIC50 was less than 4.00 in [11]; 5.37 in [1]; less than 4.00 in data set [13]; 4.06 in [14]; 4.21 in data set [16]; 5.31 in [17]. Further, the inhibition result in [3] and in [10] was “Active” each time. Besides, the Ratio IC50 in [12] and in data set [15] was more than 12.7 each time. Besides, the Activity entry in [4] and in data set [5] was “Non-Toxic” in each case. The half-life at 10 µM in data set [7] is 25.4 min; in data set [18], 197 min. For the same compound, in data set [9], the pKi was 6.02. The Stability entry in [19] and in data set [20] was “Stable” each time.
For the compound `COc1cc(O)c(Cl)cc1/C=C/C(=O)c1ccc(O)c(O)c1`, in [1], the pIC50 was 5.05. Besides, the pKi in data set [9] is 4.95.
In data set [1], `CCCOc1ccc(C(=O)/C=C/c2cc(Cl)c(O)cc2OC)cc1` showed a pIC50 of 4.94.
In data set [1], `CCCCOc1ccc(C(=O)/C=C/c2cc(Cl)c(O)cc2OC)cc1` showed a pIC50 of 4.37.
In [1], `COc1cc(O)c(Cl)cc1/C=C/C(=O)c1ccc(O)c(C)c1` had a pIC50 of 4.82.
For `COc1ccc(C(=O)/C=C/c2cc(Br)c(O)cc2OC)cc1`, the pIC50 in data set [1] was 4.47.
For the compound `CCOc1ccc(C(=O)/C=C/c2cc(Cl)c(O)cc2OC)cc1`, in data set [1], the pIC50 was 4.67.
For `COc1ccc(C(=O)/C=C/c2cc(Cl)c(O)cc2OC)cc1O`, the pIC50 in [1] was 5.04. In addition, the pKi in data set [9] is 4.64.
With `CCOc1ccc(C(=O)/C=C/c2cc(Br)c(O)cc2OC)cc1`, the pIC50 in [1] is 4.46.
Consider `C[C@@H]1C[C@H]2[C@@H]3CCC4=CC(=O)C=C[C@]4(C)[C@@]3(F)[C@@H](O)C[C@]2(C)[C@@]1(O)C(=O)CO`, for which the result in data set [2], in data set [6] and in data set [8] was Active.
In [1], `O=c1c(O)c(-c2ccc(O)cc2)oc2cc(O)cc(O)c12` [KAEMPFEROL] had a pIC50 of 5.18. Moreover, the pKi in [9] is 4.84.
As to `N[C@@H](CC(=O)N1CCn2c(nnc2C(F)(F)F)C1)Cc1cc(F)c(F)cc1F`, the outcome in [2], in data set [6] and in data set [8] was Active.
`COc1ccc(C(=O)/C=C/c2cc(Cl)c(OC)cc2OC)cc1`: the pIC50 in [1] is less than 4.00.
The same measure, in the same setting: then `CCCCOc1ccc(C(=O)/C=C/c2cc(Br)c(O)cc2OC)cc1`, with less than 4.00.

The values above are taken from ChEMBL document CHEMBL5360591, “Licochalcone A Derivatives as Selective Dipeptidyl Peptidase 4 Inhibitors with Anti-Inflammatory Effects” (J Nat Prod, 2023).
